Reference: patent US20230277452A1, “COMPOSITIONS, DEVICES AND METHODS FOR TREATING NASAL, OTIC AND OTHER TISSUE INFECTION AND/OR INFLAMMATION” (priority 2020, published 2023)
One block for each compound: values may come before it.

What was measured:
[1] = Recovery of force-degraded fluticasone propionate spiked into placebo and of active cream, HPLC; format: physicochemical
[2] = in vivo
Procedure: The control article was 0.9% saline.
Blood was collected (via a jugular vein cannula inserted during surgery) during the 10-day post-dose phase for pharmacokinetics, hematology, clinical chemistry, glucose, and morning cortisol analysis.
Because of the variability in the volume of the sinus in sheep, the total volume varied from 5 to 15 mL. Doses calculated by body weight and body surface area (BSA) are also shown.

[3] = Forced degradation of neat mometasone furoate monohydrate, percent recovery and degradant peaks by HPLC; format: physicochemical; set-up: key to Degradant peak, RRT 0.61 with respect to MFM / Degradant peak, RRT 0.71 with respect to MFM / Degradant peak, RRT 0.79 with respect to MFM / Degradant peak, RRT 0.87* with respect to MFM / Degradant peak, RRT 1.07 with respect to MFM / Degradant peak, RRT 1.12* with respect to MFM / Degradant peak, RRT 0.96* with respect to MFM: ≥0.05% Peak Area; detected above the 0.05% cutoff; “—” indicates no peak; settings: for Degradant peak, RRT 0.87* with respect to MFM / Degradant peak, RRT 0.96* with respect to MFM / Degradant peak, RRT 1.12* with respect to MFM: related substance; for Actual Amount: neat MFM
Procedure: Degradation and impurity analysis of the creams was performed using HPLC. The following parameters were used for the analysis of mometasone furoate monohydrate.
Neat mometasone furoate monohydrate (MFM) material was degraded and analyzed for potential chromatographic interference. Briefly, neat MFM was exposed to various conditions to induce degradation including heat (60° C./5 days), light (6 inches away from a white bench light for 5 days), acid (0.1N HCl for 1 hour followed by neutralization with 0.1N NaOH), base (0.1N NaOH for 1 hour followed by neutralization with 0.1N HCl), and oxidation (3% H2O2 for 1 hour). All samples including the degraded samples, control samples (dissolved in HPLC-grade methanol), and the reference solution were analyzed.
Percent recovery is provided in Table 48 below for each condition.
Table 49 below provides the Relative Retention Times (RRTs) and detection ≥0.05% for the samples.

[4] = Recovery of force-degraded MFM spiked into placebo cream and of active cream (0.1% MFM), HPLC; format: physicochemical; settings: for Peak Area MFM / Peak Area RRT = 0.61 / Peak Area RRT = 0.71 / Peak Area RRT = 0.79 / Peak Area RRT = 0.87 / Peak Area RRT = 0.96 / Peak Area RRT = 1.07 / Peak Area RRT = 1.12 / Total MFM-Related Area: Spiked into placebo
Procedure: MFM neat and degraded materials were spiked into placebo cream (lot #2020-11-01) to investigate potential partitioning effects and peak interferences and to compare spiked and active cream samples by the procedure in Table 50 with the exception that for acid, base and peroxide degradations, the additions of HCl, NaOH and peroxide were calculated accordingly.
Percent recovery of Force-Degraded Materials Spiked into Placebo is provided in Table 51 below while recovery of active cream formulation (0.1% MFM) is provided in Table 52 below.

[5] = degraded neat material, 0.1N HC1
[6] = degraded neat material, 0.1N NaOH
[7] = degraded neat material, 3% H2O2
[8] = degraded neat material, 60° C. for 5 days
[9] = degraded neat material, White light for 5 days
[10] = male, Merino, sheep, in vivo, Betamethasone plasma concentration, Mean
[11] = male, Merino, sheep, in vivo, Individual betamethasone plasma concentrations

Difference with Placebo (neat vs spiked recovery) ([1]; 0.1N HC1 (1 hour)): 6.03%
Difference with Placebo (neat vs spiked recovery) ([1]; 0.1N NaOH (1 hour)): 0.19%
Difference with Placebo (neat vs spiked recovery) ([1]; 3% H2O2 (1 hour)): 4.03%
Difference with Placebo (neat vs spiked recovery) ([1]; 60° C. (3 days)): 1.09%
Difference with Placebo (neat vs spiked recovery) ([1]; Control (undegraded FP, kept at 4 C.)): 0.2-1.1% ^
Difference with Placebo (neat vs spiked recovery) ([1]; White light (3 days)): 2.71%
SMILES: CCC(=O)O[C@]1(C(=O)SCF)[C@H](C)C[C@H]2[C@@H]3C[C@H](F)C4=CC(=O)C=C[C@]4(C)[C@@]3(F)[C@@H](O)C[C@@]21C [Fluticasone Propionate 0.005%]

SMILES: CCC(=O)O[C@]1(C(=O)CO)[C@@H](C)C[C@H]2[C@@H]3CCC4=CC(=O)C=C[C@]4(C)[C@@]3(F)[C@@H](O)C[C@@]21C [Betamethasone 17-propionate, betamethasone 17-propionate]
plasma levels detected through ([2]; in vivo): 3 days post-dose
Tmax ([2]; sheep plasma, intra-sinus 0.05% betamethasone dipropionate cream, median (range), n = 6): 0.5 (0.5-2) hr
AUCinf ([2]; sheep, in vivo): 59.3 ± 44.8 ng·h/mL
AUClast ([2]; sheep, in vivo): 58.3 ± 44.7 ng·h/mL
Apparent half-life ([2]; sheep, in vivo): 9.5 ± 2.2 h
Cmax ([2]; sheep, in vivo): 8,279 ± 3,376 pg/ml

Degradant peak, RRT 0.61 with respect to MFM [3, 6]: —
Degradant peak, RRT 0.71 with respect to MFM [3, 6]: —
Degradant peak, RRT 0.79 with respect to MFM [3, 6]: —
Degradant peak, RRT 0.87* with respect to MFM [3, 6]: —
Degradant peak, RRT 0.61 with respect to MFM [3, 7]: —
Degradant peak, RRT 0.71 with respect to MFM [3, 7]: —
Degradant peak, RRT 0.79 with respect to MFM [3, 7]: —
Degradant peak, RRT 1.07 with respect to MFM [3, 7]: —
Degradant peak, RRT 0.87* with respect to MFM [3, 7]: —
Degradant peak, RRT 1.12* with respect to MFM [3, 7]: —
Degradant peak, RRT 0.61 with respect to MFM [3, 8]: —
Degradant peak, RRT 0.71 with respect to MFM [3, 8]: —
Degradant peak, RRT 0.79 with respect to MFM [3, 8]: —
Degradant peak, RRT 1.07 with respect to MFM [3, 8]: —
Degradant peak, RRT 0.87* with respect to MFM [3, 8]: —
Degradant peak, RRT 1.12* with respect to MFM [3, 8]: —
Degradant peak, RRT 0.61 with respect to MFM [3, 9]: —
Degradant peak, RRT 0.71 with respect to MFM [3, 9]: —
Degradant peak, RRT 0.79 with respect to MFM [3, 9]: —
Degradant peak, RRT 1.07 with respect to MFM [3, 9]: —
Degradant peak, RRT 0.87* with respect to MFM [3, 9]: —
Degradant peak, RRT 0.96* with respect to MFM [3, 9]: —
Degradant peak, RRT 1.12* with respect to MFM [3, 9]: —
Actual Amount ([3]; Acid (0.1N HCl, 1 hour)): 240.289 µg/mL
Actual Amount ([3]; Base (0.1N NaOH, 1 hour)): 6.091 µg/mL
Actual Amount ([3]; Control): 254.279 µg/mL
Actual Amount ([3]; Heat (60° C./5 days)): 249.211 µg/mL
Actual Amount ([3]; Light (white light, 5 days)): 249.916 µg/mL
Actual Amount ([3]; Peroxide (3% H2O2, 1 hour)): 262.576 µg/mL
Degradant peak, RRT 0.61 with respect to MFM ([3]; neat material, 4° C. (Control)): —
Degradant peak, RRT 0.71 with respect to MFM ([3]; neat material, 4° C. (Control)): —
Degradant peak, RRT 0.79 with respect to MFM ([3]; neat material, 4° C. (Control)): —
Degradant peak, RRT 1.07 with respect to MFM ([3]; neat material, 4° C. (Control)): —
Degradant peak, RRT 0.87* with respect to MFM ([3]; neat material, 4° C. (Control)): —
Degradant peak, RRT 1.12* with respect to MFM ([3]; neat material, 4° C. (Control)): —
degradation due to the cream making process ([4]; 0.1% MFM cream, HPLC): no apparent degradation
Peak Area MFM ([4]; Acid): 116.720
Peak Area RRT = 0.61 ([4]; Acid): no peaks
Peak Area RRT = 0.71 ([4]; Acid): no peaks
Peak Area RRT = 0.79 ([4]; Acid): no peaks
Peak Area RRT = 0.87 ([4]; Acid): no peaks
Peak Area RRT = 0.96 ([4]; Acid): 2.964
Peak Area RRT = 1.07 ([4]; Acid): 0.05
Peak Area RRT = 1.12 ([4]; Acid): 0.353
Total MFM-Related Area ([4]; Acid): 120.087
Peak Area MFM ([4]; Base): 2.991
Peak Area RRT = 0.61 ([4]; Base): 0.097
Peak Area RRT = 0.71 ([4]; Base): 0.143
Peak Area RRT = 0.79 ([4]; Base): 0.433
Peak Area RRT = 0.87 ([4]; Base): 5.187
Peak Area RRT = 0.96 ([4]; Base): 14.967
Peak Area RRT = 1.07 ([4]; Base): 55.374
Peak Area RRT = 1.12 ([4]; Base): 10.016
Total MFM-Related Area ([4]; Base): 89.208
Peak Area MFM ([4]; Control): 125.120
Peak Area RRT = 0.61 ([4]; Control): no peaks
Peak Area RRT = 0.71 ([4]; Control): no peaks
Peak Area RRT = 0.79 ([4]; Control): no peaks
Peak Area RRT = 0.87 ([4]; Control): no peaks
Peak Area RRT = 0.96 ([4]; Control): 0.171
Peak Area RRT = 1.07 ([4]; Control): no peaks
Peak Area RRT = 1.12 ([4]; Control): no peaks
Total MFM-Related Area ([4]; Control): 125.291
Peak Area MFM ([4]; Heat): 122.536
Peak Area RRT = 0.61 ([4]; Heat): no peaks
Peak Area RRT = 0.71 ([4]; Heat): no peaks
Peak Area RRT = 0.79 ([4]; Heat): no peaks
Peak Area RRT = 0.87 ([4]; Heat): no peaks
Peak Area RRT = 0.96 ([4]; Heat): 0.161
Peak Area RRT = 1.07 ([4]; Heat): no peaks
Peak Area RRT = 1.12 ([4]; Heat): no peaks
Total MFM-Related Area ([4]; Heat): 122.697
Peak Area MFM ([4]; Light): 123.671
Peak Area RRT = 0.61 ([4]; Light): no peaks
Peak Area RRT = 0.71 ([4]; Light): no peaks
Peak Area RRT = 0.79 ([4]; Light): no peaks
Peak Area RRT = 0.87 ([4]; Light): no peaks
Peak Area RRT = 0.96 ([4]; Light): 0.152
Peak Area RRT = 1.07 ([4]; Light): no peaks
Peak Area RRT = 1.12 ([4]; Light): no peaks
Total MFM-Related Area ([4]; Light): 123.823
Peak Area MFM ([4]; Peroxide): 128.187
Peak Area RRT = 0.61 ([4]; Peroxide): no peaks
Peak Area RRT = 0.71 ([4]; Peroxide): no peaks
Peak Area RRT = 0.79 ([4]; Peroxide): no peaks
Peak Area RRT = 0.87 ([4]; Peroxide): no peaks
Peak Area RRT = 0.96 ([4]; Peroxide): 0.176
Peak Area RRT = 1.07 ([4]; Peroxide): no peaks
Peak Area RRT = 1.12 ([4]; Peroxide): no peaks
Total MFM-Related Area ([4]; Peroxide): 128.363
SMILES: C[C@@H]1C[C@H]2[C@@H]3CCC4=CC(=O)C=C[C@]4(C)[C@@]3(Cl)[C@@H](O)C[C@]2(C)[C@@]1(OC(=O)c1ccco1)C(=O)CCl [MFM, mometasone furoate monohydrate]
Degradant peak, RRT 0.61 with respect to MFM [3, 5]: detected (≥0.05% Peak Area; detected above the 0.05% cutoff)
Degradant peak, RRT 0.71 with respect to MFM [3, 5]: detected (≥0.05% Peak Area; detected above the 0.05% cutoff)
Degradant peak, RRT 0.79 with respect to MFM [3, 5]: detected (≥0.05% Peak Area; detected above the 0.05% cutoff)
Degradant peak, RRT 1.07 with respect to MFM [3, 5]: detected (≥0.05% Peak Area; detected above the 0.05% cutoff)
Degradant peak, RRT 0.87* with respect to MFM [3, 5]: detected (≥0.05% Peak Area; detected above the 0.05% cutoff)
Degradant peak, RRT 0.96* with respect to MFM [3, 5]: detected (≥0.05% Peak Area; detected above the 0.05% cutoff)
Degradant peak, RRT 1.12* with respect to MFM [3, 5]: detected (≥0.05% Peak Area; detected above the 0.05% cutoff)
Degradant peak, RRT 1.07 with respect to MFM [3, 6]: detected (≥0.05% Peak Area; detected above the 0.05% cutoff)
Degradant peak, RRT 0.96* with respect to MFM [3, 6]: detected (≥0.05% Peak Area; detected above the 0.05% cutoff)
Degradant peak, RRT 1.12* with respect to MFM [3, 6]: detected (≥0.05% Peak Area; detected above the 0.05% cutoff)
Degradant peak, RRT 0.96* with respect to MFM [3, 7]: detected (≥0.05% Peak Area; detected above the 0.05% cutoff)
Degradant peak, RRT 0.96* with respect to MFM [3, 8]: detected (≥0.05% Peak Area; detected above the 0.05% cutoff)
Degradant peak, RRT 0.96* with respect to MFM ([3]; neat material, 4° C. (Control)): detected (≥0.05% Peak Area; detected above the 0.05% cutoff)

AUC(0-inf) ([2]; male, Merino, sheep, in vivo): 35.2 ± 8.3 ng·h/mL
AUC(0-t) ([2]; male, Merino, sheep, in vivo): 33.5 ± 8.9 ng·h/mL
Cmax ([2]; male, Merino, sheep, in vivo): 0.98 ± 0.397 ng/mL
Tmax ([2]; male, Merino, sheep, in vivo): 24 h
plasma levels detected through ([2]; male, Merino, sheep, in vivo): 3 days post-dose
time of maximum plasma levels ([2]; male, Merino, sheep, in vivo): about 24 hr post-dose
concentration at 0 h [2, 10]: 0 ng/mL
concentration at 0.5 h [2, 10]: 0.152 ng/mL
concentration at 1 h [2, 10]: 0.307 ng/mL
concentration at 2 h [2, 10]: 0.518 ng/mL
concentration at 6 h [2, 10]: 0.74 ng/mL
concentration at 24 h [2, 10]: 0.964 ng/mL
concentration at 48 h [2, 10]: 0.223 ng/mL
concentration at 72 h [2, 10]: 0.071 ng/mL
concentration at 0 h [2, 11]: 0 ng/mL
concentration at 48 h [2, 11]: 0.229 ng/mL
SMILES: C[C@H]1C[C@H]2[C@@H]3CCC4=CC(=O)C=C[C@]4(C)[C@@]3(F)[C@@H](O)C[C@]2(C)[C@@]1(O)C(=O)CO [Betamethasone, betamethasone]
